Test results from US8512965B2, “Methods of identifying ligands to sour-taste receptors comprising PKD1L3 and PKDPKD2L1” (Duke University, priority 2006, dated 2013).
Blank lines part the entries; values can stand above or below the compound they belong to.

Experiments:
PKD1L3/PKD2L1 = target: T1, PKD1L3/PKD2L1 (Mus musculus, UniProt A2A259+Q2EG98, I1053S/I114V/I482V/L203V/Q202H/Y438D); experiment: Calcium imaging (fluo-4/fura-red) of HEK293T cells transiently co-expressing PKD1L3 and PKD2L1; type: cell-based, murine; conditions: for calcium response upon stimulation: pH 2.6
T1 construct: HA (N); expressed in transfected cells; host or cells: HEK293T

[1] = at the same pH (Ganzevles and Kroeze, 1987; Makhlouf and Bum, 1972); cited from earlier work
taste cells = conditions: cited from earlier work
[2] = tested on: either PKD1L3 or PKD2L1, or neither of them; experiment: Calcium imaging of HEK293T cells expressing PKD1L3 or PKD2L1 alone, or neither; type: cell-based, murine; conditions: treated with citric acid
[3] = cells expressing both PKD1L3 and PKD2L1, citric acid 25 mM, hydrochloric acid at the same pH

T1 sequence (Q2EG98 21-2151 I1053S): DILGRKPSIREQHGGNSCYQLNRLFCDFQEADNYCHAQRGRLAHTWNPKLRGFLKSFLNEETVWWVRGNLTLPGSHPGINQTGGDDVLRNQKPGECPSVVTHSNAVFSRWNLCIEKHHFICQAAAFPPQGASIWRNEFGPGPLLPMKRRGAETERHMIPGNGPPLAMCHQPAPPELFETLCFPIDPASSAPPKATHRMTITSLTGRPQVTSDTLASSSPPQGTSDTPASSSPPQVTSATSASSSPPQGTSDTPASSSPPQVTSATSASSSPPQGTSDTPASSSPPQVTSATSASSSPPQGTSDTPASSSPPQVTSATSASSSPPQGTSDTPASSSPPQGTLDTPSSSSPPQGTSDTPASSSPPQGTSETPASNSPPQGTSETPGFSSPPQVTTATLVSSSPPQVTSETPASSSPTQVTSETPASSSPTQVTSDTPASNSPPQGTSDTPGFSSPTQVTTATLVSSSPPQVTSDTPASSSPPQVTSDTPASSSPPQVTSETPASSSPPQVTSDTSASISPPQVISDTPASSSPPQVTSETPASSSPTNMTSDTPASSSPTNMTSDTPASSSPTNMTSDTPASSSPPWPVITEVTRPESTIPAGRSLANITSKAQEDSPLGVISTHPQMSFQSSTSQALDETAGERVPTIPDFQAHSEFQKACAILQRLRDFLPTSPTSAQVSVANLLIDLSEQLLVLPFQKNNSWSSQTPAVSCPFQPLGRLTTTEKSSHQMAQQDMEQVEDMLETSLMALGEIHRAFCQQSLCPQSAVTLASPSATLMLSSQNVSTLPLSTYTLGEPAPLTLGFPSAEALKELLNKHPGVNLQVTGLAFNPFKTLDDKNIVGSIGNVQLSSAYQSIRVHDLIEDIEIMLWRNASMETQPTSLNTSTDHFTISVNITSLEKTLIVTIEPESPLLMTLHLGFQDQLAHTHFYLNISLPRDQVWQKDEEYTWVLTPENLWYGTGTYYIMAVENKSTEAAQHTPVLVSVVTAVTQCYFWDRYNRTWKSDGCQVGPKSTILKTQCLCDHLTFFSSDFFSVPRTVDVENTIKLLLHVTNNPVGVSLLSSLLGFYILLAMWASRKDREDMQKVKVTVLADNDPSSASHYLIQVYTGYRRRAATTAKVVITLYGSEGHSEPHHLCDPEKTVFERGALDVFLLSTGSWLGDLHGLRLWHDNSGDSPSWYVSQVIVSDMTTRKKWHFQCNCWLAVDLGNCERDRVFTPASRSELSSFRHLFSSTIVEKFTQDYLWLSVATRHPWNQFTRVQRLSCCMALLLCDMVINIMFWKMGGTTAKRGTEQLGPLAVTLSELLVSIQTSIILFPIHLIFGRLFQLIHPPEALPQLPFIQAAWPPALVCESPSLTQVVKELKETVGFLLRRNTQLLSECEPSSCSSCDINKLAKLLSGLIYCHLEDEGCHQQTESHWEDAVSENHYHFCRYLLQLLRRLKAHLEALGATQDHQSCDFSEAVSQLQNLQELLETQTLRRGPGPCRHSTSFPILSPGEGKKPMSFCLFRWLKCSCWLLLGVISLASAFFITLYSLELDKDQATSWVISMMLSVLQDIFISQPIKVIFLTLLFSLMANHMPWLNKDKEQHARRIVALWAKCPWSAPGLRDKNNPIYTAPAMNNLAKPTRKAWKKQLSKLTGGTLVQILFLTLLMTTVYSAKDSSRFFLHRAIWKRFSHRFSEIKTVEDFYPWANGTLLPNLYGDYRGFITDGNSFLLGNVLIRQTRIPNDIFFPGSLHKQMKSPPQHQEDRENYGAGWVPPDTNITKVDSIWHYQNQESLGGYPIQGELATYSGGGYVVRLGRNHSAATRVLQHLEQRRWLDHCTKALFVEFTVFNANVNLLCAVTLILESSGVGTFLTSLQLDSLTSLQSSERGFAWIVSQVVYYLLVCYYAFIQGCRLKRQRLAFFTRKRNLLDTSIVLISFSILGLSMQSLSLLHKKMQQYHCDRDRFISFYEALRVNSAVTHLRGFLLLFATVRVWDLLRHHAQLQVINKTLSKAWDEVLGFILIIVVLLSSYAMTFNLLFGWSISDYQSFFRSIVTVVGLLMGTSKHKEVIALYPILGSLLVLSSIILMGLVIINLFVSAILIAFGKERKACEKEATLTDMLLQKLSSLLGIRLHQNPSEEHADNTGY
T1 sequence (A2A259 whole entry I114V/Q202H/L203V/Y438D/I482V): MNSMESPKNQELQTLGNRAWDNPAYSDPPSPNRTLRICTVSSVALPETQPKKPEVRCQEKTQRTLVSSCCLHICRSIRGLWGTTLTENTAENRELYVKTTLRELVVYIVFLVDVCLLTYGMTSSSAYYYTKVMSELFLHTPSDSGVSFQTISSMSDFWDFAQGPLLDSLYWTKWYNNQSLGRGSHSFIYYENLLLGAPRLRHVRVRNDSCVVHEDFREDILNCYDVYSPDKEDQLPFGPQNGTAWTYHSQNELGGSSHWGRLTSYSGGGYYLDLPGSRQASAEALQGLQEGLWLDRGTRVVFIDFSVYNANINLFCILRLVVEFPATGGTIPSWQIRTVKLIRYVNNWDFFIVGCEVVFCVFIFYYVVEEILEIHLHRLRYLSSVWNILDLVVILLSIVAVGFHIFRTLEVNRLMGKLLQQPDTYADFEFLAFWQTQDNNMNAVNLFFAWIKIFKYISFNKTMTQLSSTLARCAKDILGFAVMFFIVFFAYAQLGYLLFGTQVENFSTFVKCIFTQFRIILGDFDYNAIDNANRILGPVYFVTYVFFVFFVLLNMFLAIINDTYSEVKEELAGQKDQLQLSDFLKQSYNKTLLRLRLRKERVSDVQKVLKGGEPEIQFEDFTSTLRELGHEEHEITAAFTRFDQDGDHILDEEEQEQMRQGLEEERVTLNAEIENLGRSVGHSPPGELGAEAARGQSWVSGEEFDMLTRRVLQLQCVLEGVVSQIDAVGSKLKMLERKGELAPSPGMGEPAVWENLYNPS

SMILES: [Cl-].[Na+] [NaCl]
calcium response upon stimulation (PKD1L3/PKD2L1): did not respond

SMILES: CC(=O)O [acetic acid]
sour taste relative to hydrochloric acid [1]: more sour than hydrochloric acid

inhibition of function of the two protein heteromer (PKD1L3/PKD2L1; ASIC inhibitor / HCN inhibitor applied): not inhibited
SMILES: N=C(N)NC(=O)c1nc(Cl)c(N)nc1N [amiloride]

potency in activating PKD1L3/PKD2L1 heteromers relative to hydrochloric acid (PKD1L3/PKD2L1; at the same pH): more potent than hydrochloric acid
calcium response upon stimulation (PKD1L3/PKD2L1; [3]): responded
calcium response with extracellular calcium ions eliminated from the bath solution (PKD1L3/PKD2L1; cells expressing both proteins, no extracellular calcium): abolished
SMILES: O=C(O)CC(O)(CC(=O)O)C(=O)O [citric acid]
taste cells activated (taste cells; calcium imaging of taste bud slices (Caicedo et al., 2002; Richter et al., 2003)): 23-25%
potency as sour ligand relative to hydrochloric acid (taste cells; mouse taste tissue slices, same pH (Richter et al., 2003)): more potent sour ligand than hydrochloric acid
sour taste relative to hydrochloric acid [1]: more sour than hydrochloric acid
calcium response upon stimulation [2]: little or no calcium response

SMILES: C[C@@H]1C[C@@H]([C@H](O)CC2CC(=O)NC(=O)C2)C(=O)[C@@H](C)C1 [cyclohexamide]
calcium response upon stimulation (PKD1L3/PKD2L1): did not respond

SMILES: Cl [hydrochloric acid]
calcium response upon stimulation (PKD1L3/PKD2L1): much less of a calcium response

calcium response upon stimulation (PKD1L3/PKD2L1; [3]): did not respond
SMILES: C=C[C@H]1C[N@@]2CC[C@H]1C[C@H]2[C@H](O)c1ccnc2ccc(OC)cc12 [quinine]

calcium response upon stimulation (PKD1L3/PKD2L1; [3]): did not respond
SMILES: O=C1NS(=O)(=O)c2ccccc21 [saccharin]

calcium response upon stimulation (PKD1L3/PKD2L1; [3]): did not respond
SMILES: OC[C@H]1O[C@@](CO)(O[C@H]2O[C@H](CO)[C@@H](O)[C@H](O)[C@H]2O)[C@@H](O)[C@@H]1O [sucrose]
